Assay results reported in PubChem BioAssay (NCI).
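Step 1: Grow cells in 96-well plates. Step 2: Expose to compound for 48 hours at 5 concentrations. Step 3: Interpolate endpoints linearly; if unreached, use highest concentration. GI50 marks 50% less growth. The concentration for full growth arrest is given as TGI.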

Key:
Assay in all cases: NCI-60 cell line screen, 48 h
HOP-62 NSCLC = test system: HOP-62 NSCLC
HCT-15 colon = test system: HCT-15 colon
CCRF-CEM leukemia = test system: CCRF-CEM leukemia
SK-OV-3 ovarian = test system: SK-OV-3 ovarian
HCC-2998 colon = test system: HCC-2998 colon
A498 renal = test system: A498 renal
RXF 393 renal = test system: RXF 393 renal
TK-10 renal = test system: TK-10 renal
UO-31 renal = test system: UO-31 renal
SF-539 CNS = test system: SF-539 CNS

SMILES	TGI (HOP-62 NSCLC)	TGI (HCT-15 colon)	TGI (CCRF-CEM leukemia)	TGI (SK-OV-3 ovarian)	TGI (HCC-2998 colon)	TGI (A498 renal)	TGI (RXF 393 renal)	TGI (TK-10 renal)	TGI (UO-31 renal)	TGI (SF-539 CNS)	GI50 (HOP-62 NSCLC)	GI50 (HCT-15 colon)	GI50 (CCRF-CEM leukemia)	GI50 (SK-OV-3 ovarian)	GI50 (A498 renal)	GI50 (RXF 393 renal)	GI50 (SF-539 CNS)	GI50 (TK-10 renal)	GI50 (UO-31 renal)	GI50 (HCC-2998 colon)
COC(=O)C(C(=O)C(=O)NC1=C(Cl)C(=O)c2ccccc2C1=O)c1csc(-n2nc(-c3ccccc3)cc2-c2ccccc2)n1 (stereo unspecified)	> 100 µM	> 100 µM	> 100 µM	> 100 µM	> 100 µM	> 100 µM	> 100 µM	> 100 µM	> 100 µM											
Cc1cc(C)c(O)c(Cc2cccc(Cc3cc(C)cc(C)c3O)c2O)c1	> 100 µM	> 100 µM	> 100 µM	> 100 µM		> 100 µM	> 100 µM	> 100 µM	> 100 µM	> 100 µM										
O=c1cc(-c2ccc(Cl)cc2)[nH]c2ncccc12	> 100 µM	> 100 µM	> 100 µM	> 100 µM	> 100 µM	> 100 µM		> 100 µM	> 100 µM	> 100 µM										
O=C1C(=O)N(C(=O)c2ccc(Cl)c(Cl)c2)c2ccc(Cl)cc21			> 100 µM	> 100 µM		63.8 µM	> 100 µM	> 100 µM	> 100 µM	> 100 µM										
Clc1cc(Cl)c(Cl)c(-c2nc(-c3cccnc3)cs2)c1	83.8 µM	42.5 µM	42 µM	> 100 µM		> 100 µM	35.2 µM	56.6 µM	> 100 µM	25.4 µM	23.5 µM	16 µM	8.52 µM	> 100 µM	53.9 µM	10.9 µM	10.7 µM	20.5 µM	31 µM	
O=C(/C=C\c1cccc2ccccc12)c1cccs1	41.5 µM	13.8 µM	7.83 µM	31.7 µM	30 µM	35.6 µM		33.2 µM	25.6 µM	34.9 µM										
O=C(O)c1ccc2c(c1Nc1ccccc1)C(=O)c1ccccc1C2=O	> 100 µM	> 100 µM	> 100 µM	> 100 µM			> 100 µM	> 100 µM	> 100 µM	> 100 µM	35.6 µM	72.8 µM	40.5 µM	34.2 µM		26.3 µM	56.2 µM	98.5 µM	11.8 µM	
Oc1ccc(CNCc2ccccc2)c2cccnc12	> 51.2 µM	> 100 µM	0.343 µM	> 76.9 µM		> 100 µM			> 24.4 µM											
CC#CS(=O)(=O)c1ccccc1	47.2 µM	9.4 µM		40.5 µM	13.9 µM	29.3 µM	31.8 µM	17.4 µM	3.58 µM	15.5 µM										
O=C(O)c1ccc(O)c(N=Nc2cc(S(=O)(=O)O)c3ccccc3c2O)c1	35.6 µM	> 10 µM		> 10 µM	> 100 µM	> 100 µM	> 100 µM	> 100 µM	> 100 µM	> 10 µM										
C#CCOCn1cnc2c(=S)nc[nH]c21	> 100 µM	> 100 µM	> 100 µM	> 100 µM	> 100 µM	> 100 µM	> 100 µM	> 100 µM	> 100 µM											
O=C1N=C(c2ccccc2)OC1C(=O)c1ccccc1 (stereo unspecified)	> 100 µM	> 100 µM	> 100 µM	> 100 µM	> 100 µM	> 100 µM	> 100 µM	> 100 µM	> 100 µM											
Cc1ccc(S(=O)(=O)/N=c2\ssc(Nc3ccccc3)c2Cl)cc1	> 50 µM	34.4 µM		> 50 µM			46.1 µM	22.8 µM	> 50 µM		23.6 µM	11.9 µM		15.3 µM		13.6 µM		8.21 µM	21.3 µM	
N=C1N(c2ccccc2)C(=O)C23CCCC2C13N1CCOCC1 (stereo unspecified)	> 100 µM	> 100 µM	> 100 µM	> 100 µM	> 100 µM		> 100 µM		> 100 µM	> 100 µM										
COc1ccc(/C(C)=C(\c2ccc(Cl)cc2)c2ccc(OCCN3CCCC3)cc2)cc1F	8.22 µM	3.38 µM	10.7 µM	7.86 µM	6.94 µM		6.49 µM	8.13 µM	6.26 µM	5.75 µM	3.92 µM	0.848 µM	4.24 µM	4.18 µM		3.19 µM	2.74 µM	3.58 µM	2.95 µM	3.44 µM
CN=C1Nc2ccc(Cl)cc2C(c2ccccc2)=NN1C	> 100 µM	> 100 µM	> 100 µM		64.7 µM	> 100 µM	81.1 µM	> 100 µM	> 100 µM	> 100 µM										
